Experimental data taken from patent US20020115661A1, “Method for treating chronic obstructive pulmonary disease” (priority 2000, published 2002).
Like-named read-outs stand apart in the source and are kept apart here.

Assays:
[1] = Oral rising single-dose pharmacokinetic study in healthy subjects; type: in vivo, human
Pharmacokinetics in dogs = type: in vivo; conditions: dog
healthy subjects = assay: Tolerance and safety in Phase 1 studies in healthy subjects; type: in vivo, human
dog ETB receptors = molecular target: T1, dog ETB receptors (Canis lupus familiaris, UniProt P56497); assay: [125I]ET-3 binding, membranes from dog cerebellum
T1 construct: from tissue
T1 sequence (P56497 27-442): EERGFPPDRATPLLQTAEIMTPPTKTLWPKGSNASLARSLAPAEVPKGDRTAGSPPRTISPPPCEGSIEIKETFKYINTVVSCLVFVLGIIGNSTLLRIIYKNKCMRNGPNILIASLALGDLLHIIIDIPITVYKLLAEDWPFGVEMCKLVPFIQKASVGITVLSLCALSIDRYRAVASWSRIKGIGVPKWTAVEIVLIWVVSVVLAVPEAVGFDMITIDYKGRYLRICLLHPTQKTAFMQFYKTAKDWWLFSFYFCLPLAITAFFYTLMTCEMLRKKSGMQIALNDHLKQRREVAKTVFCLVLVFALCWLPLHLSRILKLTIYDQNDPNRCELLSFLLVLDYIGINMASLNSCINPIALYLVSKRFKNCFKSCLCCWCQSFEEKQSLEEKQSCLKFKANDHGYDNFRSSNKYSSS
Source text: Relative binding activities are given below in TABLE 3.

[2] = test system: rat, dog, monkey, and human hepatocyte preparations; assay: Incubations with hepatocyte preparations; type: in vitro ADME; conditions: monkey, and human hepatocytes
[3] = Distribution, plasma protein binding and excretion; type: in vivo
human ETB receptors = molecular target: T2, human ETB receptors (Homo sapiens, UniProt P24530); assay: [125I]ET-3 binding to recombinant human ETB receptors (CHO cell membranes); conditions: [125I]ET-3; CHO cell membranes with cloned human ETB receptors; read-out: ETB, IC50
T2 construct: expressed in transfected cells; host or cells: CHO cells
T2 sequence (P24530 27-442): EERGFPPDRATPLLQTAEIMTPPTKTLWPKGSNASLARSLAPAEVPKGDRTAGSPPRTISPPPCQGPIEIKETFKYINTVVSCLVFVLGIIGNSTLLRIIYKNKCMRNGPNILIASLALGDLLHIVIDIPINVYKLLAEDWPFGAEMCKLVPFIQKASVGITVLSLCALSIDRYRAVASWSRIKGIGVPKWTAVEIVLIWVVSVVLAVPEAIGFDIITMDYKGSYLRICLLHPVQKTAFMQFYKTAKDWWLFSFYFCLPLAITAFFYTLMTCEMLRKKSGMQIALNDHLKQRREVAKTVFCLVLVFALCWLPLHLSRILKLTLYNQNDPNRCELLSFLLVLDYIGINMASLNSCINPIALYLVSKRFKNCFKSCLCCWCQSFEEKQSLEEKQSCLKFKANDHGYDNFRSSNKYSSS

[4] = test system: chronic hypoxia-induced pulmonary hypertension and RV hypertrophy; assay: Pulmonary hypertension and right ventricular hypertrophy in rats exposed to chronic hypoxia; type: in vivo, rat; conditions: for average MPAP: hypoxic rats, days 10-20 of hypoxia
Source text: Rats were exposed to hypoxia for an additional 10 days during treatment (20 days total). A separate group of age-matched rats treated with diet alone (20 days) and no exposure to hypoxia served as normoxic controls. Blood samples, pulmonary artery pressures, and cardiac right and left ventricles were collected at the end of the 20-day protocol.
Rats exposed to 20 days of hypoxia had MPAP of 43±2 mm Hg which averaged 30 mm Hg higher than normal (13±0 mm Hg).
Heparinized plasma samples were collected approximately 1 hour before MPAP was measured.
The right ventricular hypertrophic response to hypoxia was estimated by comparing the ratio of right ventricular free wall weight to left ventricle plus septum weight (RV/LV+S) between hypoxic and normoxic control groups. Using this index, rats exposed to hypoxia had right ventricular free walls that were more than twice control (0.57±0.03 versus 0.24±0.1).

anesthetized dogs = assay: Pulmonary function in anesthetized dogs; type: in vivo, dog
Procedure: Each animal received each treatment and served as its own control, with 7 days between treatments. […] Pulmonary function parameters were evaluated for 60 minutes after each dose, and included minute volume, respiratory rate, resistance, compliance, peak inspiratory and expiratory volumes, and tidal volume. Indirect blood pressure measurements were made periodically throughout the pulmonary data collection period since endothelin receptor antagonists are known to induce hypotension.
Plasma concentration in this dog 5 minutes postdose was 1960 μg/mL.

Solubility = type: physicochemical
Procedure: The compound acts as a base, raising the pH of the water to a measured value of 8.9 for a 100 mg/mL solution.
CI-1034 is insoluble in hexane and isopropanol.

[5] = Thermal properties, hygroscopicity and stability; type: physicochemical
[6] = anesthetized dogs, 30 or 60 mg/kg

Structure (SMILES): CCc1cc(C2=C(C(=O)[O-])N(c3ccccc3C(F)(F)F)S(=O)(=O)c3ccccc32)cc2c1OCO2.[K+] [CI-1034, 4-(7-Ethyl-1,3-benzodioxol-5-yl)-2-[2-(trifluoromethyl)phenyl]-2H-1 ,2-benzothiazine-3-carboxylic acid 1,1-dioxide monopotassium salt]
- Renal excretion of unchanged CI-1034 ([1]; Study 1034-001): < 3 % of the dose
- half-life ([1]; human, plasma, oral, 400-mg dose, read-out: additional elimination half-life (converted)): ~13 h
- half-life ([1]; human, plasma, single oral doses, Study 1034-001, read-out: elimination half-life (t½)): 2 to 4 h
- Tmax ([1]; human, plasma, single oral doses, Study 1034-001, read-out: time to maximal plasma concentrations (tmax)): 1 to 3 h
- Cmax and AUC(0-∞) with increasing dose ([1]; single oral doses): slightly more than proportional increases
- bioavailability (Pharmacokinetics in dogs; in vivo, po, dogs): ~100%
- increase of plasma concentrations with dose (Pharmacokinetics in dogs; up to 100 mg/kg): approximately proportional to dose
- QTc intervals (healthy subjects): No prolonged QTc intervals
- most frequent adverse events (healthy subjects): headache, somnolence, nausea, and dyspepsia
- serious adverse events (healthy subjects): no treatment-related serious adverse events
- changes in C-reactive protein (healthy subjects; Study 1034-001): no significant changes
- tolerance (healthy subjects; single 400 mg dose with single 2-mg dose of midazolam syrup, Study 1034-005): well-tolerated
- tolerance (healthy subjects; single 150-mg doses with or without a high-fat breakfast, Study 1034-004): well-tolerated
- tolerance (healthy subjects; single doses up to 400 mg, Study 1034-001): well-tolerated
- laboratory abnormalities (healthy subjects; sporadic and transient): unrelated to CI-1034 administration
- intensity of adverse reactions (healthy subjects; transient): mild or moderate
- IC50 (dog ETB receptors): 329 nM
- metabolic profiles across species [2]: qualitatively similar metabolic profiles
- tissue distribution of radioequivalents ([3]; highest concentrations in liver and blood): not widely distributed
- plasma protein binding ([3]; in vivo): highly bound
- IC50 (human ETB receptors): 1600 nM
- EC50 ([4]; Rattus norvegicus, simple Emax model, chronic hypoxia, read-out: plasma concentration predicted to produce half-maximal effect): 0.32 ± 0.25 µg/mL
- average MPAP ([4]; 25 mg/kg/day in diet): 37±2 mm Hg
- average MPAP ([4]; 50 mg/kg/day in diet): 33±0 mm Hg
- average MPAP ([4]; 100 mg/kg/day in diet): 29±2 mm Hg
- predicted maximal antihypertensive effect ([4]; simple Emax model, chronic hypoxia): 60%±18%
- effects on pulmonary function (anesthetized dogs; anesthetized dog, 40 mg/kg intravenous, one animal): No effects were apparent
- pulmonary finding (anesthetized dogs; anesthetized dog, 180 mg/kg intravenous, within 5 minutes postdose, one animal): Respiratory arrest
- effect on blood pressure (anesthetized dogs; [6]): no significant effect
- effect on minute volume, pulmonary resistance, or pulmonary compliance (anesthetized dogs; [6]): no effect
- histopathology, lungs (anesthetized dogs; dog that died after 180 mg/kg): marked bilateral diffuse congestion
- histopathology, coronary arteries (anesthetized dogs; dog that died after 180 mg/kg, mild, primarily right coronary arteries): Arteriopathy
- mortality (anesthetized dogs; dog, 180 mg/kg intravenous, one animal): found dead on Day 3
- solubility (Solubility; 0.05 M pH 4 acetate buffer): very slightly soluble
- solubility (Solubility; 0.05 M pH 7.4 potassium phosphate buffer): very slightly soluble
- solubility (Solubility; 0.1N HCl): insoluble
- pH of aqueous solution (Solubility; 100 mg/mL solution in water): 8.9
- concentration after 24 hours (Solubility; 0.5 M pH 7.4 potassium phosphate buffer, after 24 hours): approximately 0.8 mg/mL
- concentration reached on rapid dissolution (Solubility; 0.5 M pH 7.4 potassium phosphate buffer, initial): approximately 13 mg/mL
- solubility (Solubility; acetonitrile): slightly soluble
- solubility (Solubility; chloroform): very slightly soluble
- solubility (Solubility; dichloromethane): very slightly soluble
- solubility (Solubility; dimethylsulfoxide): freely soluble
- solubility (Solubility; ethanol): sparingly soluble
- solubility (Solubility; hexane): insoluble
- solubility (Solubility; isopropanol): insoluble
- solubility (Solubility; methanol): freely soluble
- solubility (Solubility; tetrahydrofuran): slightly soluble
- solubility (Solubility; water): freely soluble
- Hygroscopicity [5]: Hygroscopicity: CI-1034 is moderately hygroscopic.
- Stability on storage ([5]; 4 weeks at 80° C. or 40° C. and 70% relative humidity): CI-1034 was stable for 4 weeks when stored at 80 °C or 40 °C and 70% relative humidity. CI-1034 does not need special storage requirements, other than the usual protection from light.
- thermally stable up to ([5]; begins to melt with decomposition): Thermal Properties: CI-1034 is thermally stable up to approximately 300° C., where it begins to melt with decomposition.
- Stability ([5]; exposed to hydrogen peroxide): No significant degradation
- Stability ([5]; exposed to simulated sunlight): # peroxide. In contrast, samples exposed to simulated sunlight showed degradation.
- Stability ([5]; heated in acid, base, or water, protected from light): stable
